Patent US6319702A, “Nucleic acids encoding mutant human carboxypeptidase A enzymes” (Glaxo Wellcome, Inc., priority 1993, dated 2001)
Like-named read-outs stand apart in the source and are kept apart here.

Test: Stability and biodistribution of prodrugs in vivo (HPLC of plasma and tissues)
Set-up: species or system mice (CD-1 nude; BALB/C where indicated)
Conditions: 50 mg/kg i.p. or i.v., CD-1 nude mice; for remaining at 0.5 h / remaining at 2 h / concentration at 0.5 h / concentration at 2 h: mouse, 50 mg/kg; for concentration at 0.5 h / concentration at 2 h: read-out: concentration of prodrug in plasma
[1] = cecum, CECUM, 30 min, read-out: stability: percentage of material observed as intact prodrug, cecum
[2] = cecum, CECUM, 120 min, read-out: stability: percentage of material observed as intact prodrug, cecum
[3] = kidney, KIDNEY, 30 min, read-out: stability: percentage of material observed as intact prodrug, kidney
[4] = kidney, KIDNEY, 120 min, read-out: stability: percentage of material observed as intact prodrug, kidney
[5] = large intestine, LARGE INTESTINE, 30 min, read-out: stability: percentage of material observed as intact prodrug, large intestine
[6] = large intestine, LARGE INTESTINE, 120 min, read-out: stability: percentage of material observed as intact prodrug, large intestine
[7] = liver, LIVER, 30 min, read-out: stability: percentage of material observed as intact prodrug, liver (converted)
[8] = liver, LIVER, 120 min, read-out: stability: percentage of material observed as intact prodrug, liver
[9] = plasma, PLASMA, 30 min, read-out: stability: percentage of material observed as intact prodrug, plasma
[10] = plasma, PLASMA, 120 min, read-out: stability: percentage of material observed as intact prodrug, plasma
[11] = small intestine, SMALL INTESTINE, 30 min, read-out: stability: percentage of material observed as intact prodrug, small intestine
[12] = small intestine, SMALL INTESTINE, 120 min, read-out: stability: percentage of material observed as intact prodrug, small intestine
[13] = spleen, SPLEEN, 30 min, read-out: stability: percentage of material observed as intact prodrug, spleen
[14] = spleen, SPLEEN, 120 min, read-out: stability: percentage of material observed as intact prodrug, spleen
[15] = tumor, TUMOR, 30 min, read-out: stability: percentage of material observed as intact prodrug, tumor
[16] = tumor, TUMOR, 120 min, read-out: stability: percentage of material observed as intact prodrug, tumor

Row | SMILES | concentration of prodrug in cecum (CECUM, 30 min) | concentration of prodrug in cecum (CECUM, 120 min) | concentration of prodrug in kidney (KIDNEY, 30 min) | concentration of prodrug in kidney (KIDNEY, 120 min) | concentration of prodrug in large intestine (LARGE INTESTINE, 30 min) | concentration of prodrug in large intestine (LARGE INTESTINE, 120 min) | concentration of prodrug in liver (LIVER, 30 min) | concentration of prodrug in liver (LIVER, 120 min) | concentration of prodrug in small intestine (SMALL INTESTINE, 30 min) | concentration of prodrug in small intestine (SMALL INTESTINE, 120 min) | concentration of prodrug in spleen (SPLEEN, 30 min) | concentration of prodrug in spleen (SPLEEN, 120 min) | concentration of prodrug in tumor (TUMOR, 30 min) | concentration of prodrug in tumor (TUMOR, 120 min) | remaining at 0.5 h [1] | remaining at 2 h [2] | remaining at 0.5 h [3] | remaining at 2 h [4] | remaining at 0.5 h [5] | remaining at 2 h [6] | other results
1 | CN(Cc1cnc2nc(N)nc(N)c2n1)c1ccc(C(=O)N[C@@H](CCC(=O)O)C(=O)N[C@@H](CC(=O)O)C(=O)O)cc1 [Prodrug 6] | 7.5 nmol/g | 0.8 nmol/g | 93.4 nmol/g | 12.6 nmol/g | 5.7 nmol/g | 19.4 nmol/g | 287.8 nmol/g | 161.6 nmol/g | 21.3 nmol/g | 14.2 nmol/g | 3.4 nmol/g | 0.0 nmol/g | 7.5 nmol/g | 0.8 nmol/g | 82% | 59% | 98% | 98% | 100% | 65% | concentration of prodrug in feces (FECES, 30 min): 42 nmol/g; concentration of prodrug in feces (FECES, 120 min): 207 nmol/g; remaining at 0.5 h (feces, FECES, 30 min, read-out: stability: percentage of material observed as intact prodrug, feces (converted)): 21%; remaining at 2 h (feces, FECES, 120 min, read-out: stability: percentage of material observed as intact prodrug, feces): 52%; remaining at 0.5 h [7]: 97%; remaining at 2 h [8]: 93%; concentration at 0.5 h (plasma, PLASMA, 30 min): 46.7 µM; remaining at 0.5 h [9]: 100%; concentration at 2 h (plasma, PLASMA, 120 min): 2 µM; remaining at 2 h [10]: 100%; remaining at 0.5 h [11]: 86%; remaining at 2 h [12]: 54%; remaining at 0.5 h [13]: 70%; remaining at 2 h [14]: 0%; remaining at 0.5 h [15]: 82%; remaining at 2 h [16]: 59%
2 | Cc1nc2ccc3ccc(CNc4ccc(C(=O)N[C@@H](CCC(=O)O)C(=O)N[C@@H](CCC(=O)O)C(=O)O)c(F)c4)cc3c2c(=O)[nH]1 [Prodrug 1, N-(N-(4(((1,2-dihydro-3-methyl-1-oxobenzo(F)quinazolin-9-yl)methyl)amino)-2-fluorobenzoyl)-L-glutam-1-yl)-L-glutamic acid] | 6.0 nmol/g | 1.2 nmol/g | 175.8 nmol/g | 70.3 nmol/g | 12.2 nmol/g | 1.0 nmol/g | 770.3 nmol/g | 579.8 nmol/g | 48.2 nmol/g | 55.6 nmol/g | 23.4 nmol/g | 1.8 nmol/g | 6.0 nmol/g | 1.2 nmol/g | 96% | 76% | 98% | 97% | 93% | 100% | remaining at 0.5 h [7]: 98%; remaining at 2 h [8]: 97%; concentration at 0.5 h (plasma, PLASMA, 30 min): 41.5 µM; remaining at 0.5 h [9]: 99%; concentration at 2 h (plasma, PLASMA, 120 min): 4.2 µM; remaining at 2 h [10]: 100%; remaining at 0.5 h [11]: 83%; remaining at 2 h [12]: 68%; remaining at 0.5 h [13]: 100%; remaining at 2 h [14]: 100%; remaining at 0.5 h [15]: 96%; remaining at 2 h [16]: 76%
